The results in this text go back to publication PMC8876959, “Comparative Evaluation of Radiochemical and Biological Properties of ^131I- and [^99mTc]Tc(CO)3-Labeled RGD Analogues Planned to Interact with the αvβ3 Integrin Expressed in Glioblastoma” (Pharmaceuticals, 2022).

Non-standard residues stand in square brackets, D forms with d. Residues, ends and D or L forms follow the SMILES beside them. Tyr(3,5-I2) = N[C@@H](Cc1cc(I)c(O)c(I)c1)C(=O)O Where only a bound is given, the exact number is not on record here.

`CC(C)[C@H](NC(=O)[C@H](Cc1cc(I)c(O)c(I)c1)NC(=O)[C@H](CC(=O)O)NC(=O)CNC(=O)[C@H](CCCNC(=N)N)NC(=O)CN)C(=O)O` [[^131I]I-GRGDYV] (H-GRGD[Tyr(3,5-I2)]V-OH): the Radiochemical purity in human serum up to 24 h was > 94%.
